# Results as given in PubChem BioAssay AID1259332 (Broad Institute, 2017).
# Active and inactive are the calls of the source. The rule behind the calls is not given here.
# System: not listed separately
# Experiment: CD40 pathway inhibition in B cells – B cell lineage, dose response (AID 1259332);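 note: cells stimulated with CD40 ligand tCD40L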;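 for activity change, negative = inhibition: 0% = neutral control wells and -100% = positive control wells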
# Settings: B cell line, CD40 signaling inhibition reporter; at 0.35 µM (top of the series)
row,Structure (SMILES),"activity change, negative = inhibition"
1,CCc1cnc(N2[C@H](C#N)[C@H](c3ccc(C#CCC4CCCC4)cc3)[C@@H]2CO)s1,4.84% (inactive)

# Same assay, conditions: B cell line, CD40 signaling inhibition reporter; at 0.38 µM (top of the series)
row,Structure (SMILES),"activity change, negative = inhibition"
1,c1ccc(CCSc2nccn2-c2ccccc2)cc1,36.4% (inactive)

# Same assay, conditions: B cell line, CD40 signaling inhibition reporter; at 1.1 µM (top of the series)
row,Structure (SMILES),"activity change, negative = inhibition"
1,O=C1C(=NO)CCc2ccccc21,21.3% (inactive)
2,C/C=C/c1ccc(C2[C@H]3CNC[C@@H]2N3Cc2cccc(OC)c2)cc1 (stereo not given in full),19.7% (inactive)
3,O=C(Nc1nc2ccccc2s1)c1ccc(OCC2CCCO2)cc1 (stereo not given),111% (inactive)
4,COc1ccc(C#Cc2ccc([C@H]3[C@@H](CO)N4CCCCN(S(=O)(=O)c5cn(C)cn5)C[C@H]34)cc2)cc1,15.6% (inactive)
5,COc1ccc(S(=O)(=O)N(C)C[C@H]2Oc3ccc(NC(=O)Nc4ccc(C(F)(F)F)cc4)cc3C(=O)N([C@@H](C)CO)C[C@@H]2C)cc1,11.5% (inactive)

# Same assay, conditions: B cell line, CD40 signaling inhibition reporter; at 3 µM (top of the series)
row,Structure (SMILES),"activity change, negative = inhibition"
1,O=C(Nc1ccccc1F)N1C[C@@H]2N[C@H](C1)C2c1ccc(/C=C/c2ccccc2)cc1 (stereo not given in full),2.39% (inactive)

# Same assay, conditions: B cell line, CD40 signaling inhibition reporter; at 3.5 µM (top of the series)
row,Structure (SMILES),"activity change, negative = inhibition"
1,C[C@@H]1CN([C@H](C)CO)C(=O)Cc2cc(NC(=O)Cc3cn(C)c4ccccc34)ccc2O[C@H]1CN(C)Cc1ccc(C(F)(F)F)cc1,0.703% (inactive)
2,CC(C)(C)c1cc(/C=C(\C#N)C(N)=S)cc(C(C)(C)C)c1O,4.91% (inactive)
3,COc1ccc(-c2cnc3c(c2)C(=O)N([C@H](C)CO)C[C@@H](C)[C@@H](CN(C)C(=O)Nc2c(C)noc2C)O3)cc1,-1.25% (inactive)
4,CCCNC(=O)N1[C@H](C#N)[C@@H](c2ccc(-c3cccc(OC)c3)cc2)[C@H]1CO,1.94% (inactive)
5,COc1ccc(S(=O)(=O)N(C)C[C@@H]2Oc3ccc(NC(=O)Nc4ccc(C(F)(F)F)cc4)cc3C(=O)N([C@H](C)CO)C[C@H]2C)cc1,-10.6% (inactive)
6,CCCNC(=O)c1cc2c(c(-c3cccc(-c4cc5ccccc5o4)c3)n1)[C@H](CCO)N(C(=O)NC(C)C)C2,4.19% (inactive)
7,O=C(Nc1ccc(C(F)(F)F)cc1)Nc1ccc2c(c1)[C@H]1C[C@@H](CC(=O)N3CCc4ccccc4C3)O[C@H](CO)[C@H]1O2,0.714% (inactive)
8,CC(C)NC(=O)N1CC(=O)N2[C@H](CO)[C@@H](c3ccc(/C=C/c4ccccc4)cc3)[C@H]2C1,6.58% (inactive)
9,COc1ccc(Cl)cc1NC(=O)Nc1cc(C)nc2ccccc12,-7.79% (inactive)
10,c1cncc(C2=NCCC2)c1,-2.83% (inactive)
11,N#C[C@H]1[C@H](c2ccc(C#CC3CCCCC3)cc2)[C@@H](CO)N1C(=O)Nc1ccc(F)cc1,-2.23% (inactive)
12,O=C1C=CC(=O)C2=C1C1c3ccccc3C2c2ccccc21,-3.76% (inactive)
13,C[C@@H]1CCCCO[C@@H](CN(C)C(=O)C2CCCCC2)[C@@H](C)CN([C@H](C)CO)C(=O)c2cc(NS(=O)(=O)c3ccccc3)ccc2O1,-0.82% (inactive)
14,CCCNC(=O)N1[C@H](CO)[C@H](c2ccc(-c3cccc(OC)c3)cc2)[C@@H]1C#N,12% (inactive)
15,N#C[C@H]1[C@@H](c2ccc(C#CC3CCCCC3)cc2)[C@@H](CO)N1C(=O)Nc1ccc(F)cc1,2.75% (inactive)
16,Cc1noc(C)c1NC(=O)N(C)C[C@@H]1OCCCC[C@@H](C)Oc2ccc(NC(=O)Nc3ccc(C(F)(F)F)cc3)cc2C(=O)N([C@H](C)CO)C[C@H]1C,-11.7% (inactive)
17,O=C(CCN1CCC(c2ccccc2)C1)c1ccc2c(c1)OCCO2 (stereo not given),26.9% (inactive)
18,C[C@]12CC[C@H](O)C[C@H]1CC[C@@H]1[C@@H]2CC[C@]2(C)[C@@H](c3ccc(=O)oc3)CC[C@]12O,1.4% (inactive)
19,O=C(Nc1ccc(C(F)(F)F)cc1)Nc1ccc2c(c1)[C@H]1C[C@@H](CC(=O)N3CCc4ccccc4C3)O[C@@H](CO)[C@H]1O2,-2.03% (inactive)
20,Cc1ccc(-c2cc(C(=O)N3CC(C)OC(C)C3)c3ccccc3n2)o1 (stereo not given),26% (inactive)

# Same assay, conditions: B cell line, CD40 signaling inhibition reporter; at 10 µM (top of the series)
row,Structure (SMILES),"activity change, negative = inhibition"
1,COc1ccc(S(=O)(=O)Nc2ccc3c(c2)C(=O)N([C@@H](C)CO)C[C@@H](C)[C@H](CN(C)Cc2ccc(C(F)(F)F)cc2)OCCCC[C@@H](C)O3)cc1,-0.502% (inactive)
2,O=C(CNCCO)N1N=C(c2cccs2)CC1c1cccs1 (stereo not given),12.3% (inactive)
3,O=C1C(O)CC2c3ccccc3CC3(CCCC3)N12 (stereo not given),0.899% (inactive)
4,COc1cccc(S(=O)(=O)N(C)C[C@@H]2OCc3ccccc3-c3c(n(C)c4ccccc34)C(=O)N([C@@H](C)CO)C[C@@H]2C)c1,8.02% (inactive)
5,Cc1noc(C)c1S(=O)(=O)Nc1ccc2c(c1)C(=O)N([C@@H](C)CO)C[C@H](C)[C@@H](CN(C)C(=O)Nc1cccc3ccccc13)OCCCC[C@H](C)O2,-10.1% (inactive)
6,COc1ccc(S(=O)(=O)N(C)C[C@@H]2Oc3ccc(NC(=O)Nc4ccc(C(F)(F)F)cc4)cc3C(=O)N([C@@H](C)CO)C[C@@H]2C)cc1,8.35% (inactive)
7,Cc1cc(C(=O)COC(=O)c2cccn2C)c(C)n1Cc1ccco1,-4.27% (inactive)
8,CCc1cc2c(=O)c(-c3ccc4c(c3)OCCO4)coc2c(CN2CCCCC2C)c1O (stereo not given),1.98% (inactive)
9,CCc1cc2c(COC(=O)c3cc(S(=O)(=O)N4CCOCC4)ccc3F)cc(=O)oc2cc1O,11.4% (inactive)
10,CC(=O)c1cc(-c2ccccc2)n(CC(=O)NCc2cccs2)c1C,-1.07% (inactive)
11,NS(=O)(=O)c1cc2c(cc1C(F)(F)F)NC(Cc1ccccc1)NS2(=O)=O (stereo not given),5.72% (inactive)
12,OC(CCN1CCCCC1)c1ccc(-c2ccccc2)cc1 (stereo not given),40.4% (inactive)
13,COc1ccc2c3c(n(C)c2c1)[C@H](CO)N(C(=O)Nc1ccc(F)cc1)CC31CCN(C(=O)c2ccc3c(c2)OCO3)CC1,7.94% (inactive)
14,Cc1ccc(-c2cc(C(=O)N3CCCC(C(F)(F)F)C3)c3ccccc3n2)o1 (stereo not given),16.7% (inactive)
15,C[C@@H]1CN([C@@H](C)CO)C(=O)c2c(c3ccccc3n2C)-c2ccccc2CO[C@H]1CN(C)S(=O)(=O)c1ccc([N+](=O)[O-])cc1,-6.57% (inactive)
16,Cc1ccc(C(CC(=O)NCc2ccco2)c2ccc(OC(C)C)cc2)cc1 (stereo not given),3.92% (inactive)
17,Cc1cc(C)c2c(c1)SC1=NC(c3ccccc3)(C(F)(F)F)NC(=O)N12 (stereo not given),8.7% (inactive)
18,OC1(c2ccc(Cl)c(C(F)(F)F)c2)CCN(CCCC(c2ccc(F)cc2)c2ccc(F)cc2)CC1,3.82% (inactive)
19,COc1ccc(NC(=O)O/N=C/c2c(C)nn(C(C)(C)C)c2C)cc1,13.9% (inactive)
20,CCCCc1nc2ccccc2[nH]1,2.81% (inactive)
21,Oc1cc(O)cc(/C=C/c2ccc(O)c(O)c2)c1,-10.7% (inactive)
22,CC(C)Cc1ccc(C(C)/C=C2/CCC(CN3CCCCC3)C2=O)cc1 (stereo not given),-18.1% (inactive)
23,Fc1ccccc1/C=C1\CCCC2=C1Nc1nnnn1C2c1ccccc1F (stereo not given),-1.53% (inactive)
24,O=C(Nc1ccccc1F)N1CCCCN2[C@H](CO)[C@H](c3ccc(/C=C/c4ccccc4)cc3)[C@H]2C1,-13.9% (inactive)
25,CC(=O)Nc1ccc(S(=O)(=O)c2ccc(N)cc2)cc1,0.776% (inactive)
26,COc1ccc(CN2CC3(CN(S(=O)(=O)c4ccc(C)cc4)C3)c3c([nH]c4cc(OC)ccc34)[C@H]2CO)cc1,-1.27% (inactive)
27,O=C(c1ccc(-c2ccc([N+](=O)[O-])cc2)o1)N1CCCC(C(F)(F)F)C1 (stereo not given),7.32% (inactive)
28,NS(=O)(=O)c1nn2cc(-c3ccccc3)nc2s1,-27.6% (inactive)

# System: B cell line, CD40 signaling inhibition reporter
# Experiment: as above
# Settings: not given
row,Structure (SMILES),AC50 [µM]
1,CC(C)[C@H](CO)Nc1nc(Nc2cccc(Cl)c2)c2ncn(C(C)C)c2n1,4.67
2,CC(=O)O[C@H]1C[C@H](O[C@H]2[C@@H](O)C[C@H](O[C@H]3[C@@H](O)C[C@H](O[C@H]4CC[C@@]5(C)C(CCC6C5C[C@@H](O)[C@]5(C)[C@@H](C7=CC(=O)OC7)CC[C@]65O)C4)O[C@@H]3C)O[C@@H]2C)O[C@H](C)[C@H]1O[C@@H]1O[C@H](CO)[C@@H](O)[C@H](O)[C@H]1O (stereo not given in full),0.909
3,Cc1noc(C)c1S(=O)(=O)N(C)C[C@H]1OCc2ccccc2-c2c(n(C)c3ccccc23)C(=O)N([C@@H](C)CO)C[C@H]1C,11.2
4,CC1(C)C(=O)C=C[C@@]2(C)C1C=C[C@]1(C)C2CC[C@@]2(C)[C@H](c3ccoc3)OC(=O)[C@H]3O[C@]321 (stereo not given in full),5.24
5,COc1ccc(S(=O)(=O)Nc2ccc3c(c2)C(=O)N([C@H](C)CO)C[C@H](C)[C@@H](CN(C)Cc2ccc(C(F)(F)F)cc2)OCCCC[C@@H](C)O3)cc1,11.4
6,Cc1cc(C(=O)COC(=O)CNC(=O)c2ccccc2)c(C)n1CC1CCCO1 (stereo not given),2.32
7,CC[N+]1(C)CCC(O)(c2ccc(OC)cc2)C(C(=O)c2ccc(OC)cc2)C1 (stereo not given),3.75
8,CC1CCCC=CC2CC(OC(=O)CN(C)C)CC2C(O)C=CC(=O)O1 (stereo not given),1.77
9,C[C@@H]1CN([C@H](C)CO)C(=O)c2c(c3ccccc3n2C)-c2ccccc2CO[C@@H]1CN(C)C(=O)c1cc(Cl)cc(Cl)c1,8.65
10,COc1ccc(/C=N/Nc2ncccc2[N+](=O)[O-])c(OC)c1,4.23
11,C[C@H](CO)N1C[C@H](C)[C@H](CN(C)S(=O)(=O)c2ccc([N+](=O)[O-])cc2)OCc2ccccc2-c2c(n(C)c3ccccc23)C1=O,9.57
12,Cn1cc(C2=C(c3cn(CCCSC(=N)N)c4ccccc34)C(=O)NC2=O)c2ccccc21,0.67
13,c1ccc2sc(-c3ccc4c(c3)OCO4)nc2c1,8.5
14,C[C@@H]1CN([C@@H](C)CO)C(=O)c2c(c3ccccc3n2C)-c2ccccc2CO[C@H]1CN(C)Cc1ccccc1,8.22
